Where two headings read alike, the source gives them in different places.
Assays:
[1] = biological target: T1, IL-6 receptor (Homo sapiens, UniProt P08887); conditions: patients with severe SARS-CoV-2 pneumonia, preliminary clinical data; cited from earlier work
T1 construct: host or cells: patients (in vivo)
T1 sequence (P08887 20-468): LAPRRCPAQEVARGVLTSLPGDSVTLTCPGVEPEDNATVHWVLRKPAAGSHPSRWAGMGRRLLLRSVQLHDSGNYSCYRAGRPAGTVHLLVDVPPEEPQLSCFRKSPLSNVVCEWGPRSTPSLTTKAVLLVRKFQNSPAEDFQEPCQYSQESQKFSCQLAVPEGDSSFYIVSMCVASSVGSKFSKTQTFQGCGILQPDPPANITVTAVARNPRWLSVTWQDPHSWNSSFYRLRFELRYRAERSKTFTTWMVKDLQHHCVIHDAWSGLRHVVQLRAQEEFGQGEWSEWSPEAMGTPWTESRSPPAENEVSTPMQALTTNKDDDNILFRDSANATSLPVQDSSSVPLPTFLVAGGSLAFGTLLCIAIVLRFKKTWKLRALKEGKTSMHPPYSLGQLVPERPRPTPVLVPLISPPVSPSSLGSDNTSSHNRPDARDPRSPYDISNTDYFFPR

[2] = system: human mononuclear cells; conditions: nanomolar or micromolar concentrations; cited from earlier work
[3] = mice, 120 mg/kg single dose; cited from earlier work
[4] = system: NK, NKT, T and B cells; conditions: healthy rats, cited from earlier work
[5] = system: LPS-induced acute lung injury; conditions: mice, 20 mg/kg, 6 h after LPS; cited from earlier work
[6] = systemic exposure after i.p. and oral application of CBD in mice (Deiana et al. 2012); type: in vivo; conditions: 20 mg/kg, assuming dose-proportional plasma concentrations
Protocol: A comparative investigation for systemic exposure after i.p. and oral application of CBD in mice and rats has shown that 120 mg/kg as a single dose leads to a maximum plasma concentration of 14,000 ng/ml in mice (S. Deiana et al. (2012). Plasma and brain pharmacokinetic profile of cannabidiol (CBD), cannabidivarine (CBDV), Delta(9)-tetrahydrocannabivarin (THCV) and cannabigerol (CBG) in rats and mice following oral and intraperitoneal administration and CBD action on obsessive-compulsive behaviour. Psychopharmacology (Bed) 219(3): 859-73).

[7] = system: LPS-induced acute lung injury; conditions: cited from earlier work
[8] = system: chemically induced acute hepatitis; conditions: mice, 25 mg/kg; cited from earlier work
[9] = system: activated memory T cell line; conditions: 1-5 μmol/l, cited from earlier work
[10] = system: ischemia-reperfusion-induced kidney injury; conditions: mice, 10 mg/kg after induced kidney injury; cited from earlier work
[11] = system: CD83; conditions: cited from earlier work
[12] = system: microglial cells; conditions: 1-16 μmol/l; cited from earlier work
[13] = system: human neutrophils; conditions: cited from earlier work
[14] = system: IL-6 secretion; conditions: cellular models, majority of cases; cited from earlier work
[15] = decimal logarithm of n-octanol/water partition coefficient; cited from earlier work
[16] = mice, 0.3-80 mg/kg i.p. 60 min before LPS

tocilizumab: humanized monoclonal antibody against the IL-6 receptor
clinical effect of IL-6 blockade therapy [1]: beneficial effects

C=C(C)[C@@H]1CCC(C)=C[C@H]1c1c(O)cc(CCCCC)cc1O [CBD, 2-[(1R,6R)-3-methyl-6-(1-methylethenyl)-2-cyclohexen-1-yl]-5-pentyl-1,3-benzenediol]
release of pro-inflammatory cytokines [2]: suppressed | maximum plasma concentration [3]: 14,000 ng/ml | numbers of NK cells and NKT cells ([4]; 2.5 mg/kg per day): increased | numbers of NK cells and NKT cells ([4]; 5 mg/kg per day): not affected | number of T cells including T helper cells and cytotoxic T cells and of B cells ([4]; daily 5 mg/kg): significantly reduced | leukocyte migration (neutrophil, macrophages and lymphocytes) into the lungs [5]: decreased | mechanical lung function [5]: improved | myeloperoxidase activity in the lung tissue [5]: decreased | production of proinflammatory cytokines/chemokines [5]: reduced | vascular permeability [5]: reduced | target peak exposure [6]: 2,300 ng/ml | number of leukocytes including macrophages and neutrophils in bronchoalveolar lavage fluid ([7]; mice, 20 mg/kg, after LPS-induced lung inflammation): decreases | myeloperoxidase activity [7, 16]: significantly decreased | pro-inflammatory cytokine production including TNF-α and IL-6 [7, 16]: significantly decreased | total leukocytes migration [7, 16]: significantly decreased | vascular permeability [7, 16]: significantly decreased | dose at which effects reached a nearly maximum extent ([7]; prophylactic application, i.p.): 20 mg/kg | expression of MDSCs [8]: induces | pro-inflammatory cytokines such as IL-2, TNF-α and IL-6 [8]: reduction | IL-6 production and secretion [9]: decreased | production of IL-10 [9]: increased | autoantigen-specific Th17 cell phenotype (IL-17) ([9]; dose-dependently): reduced | decreased Treg17 and increased Th17 levels [10]: reversed | effect on induced kidney injury [10]: renoprotective | CD83 dendritic cell activation marker ([11]; dendritic cells derived from healthy individuals): not | CD83 dendritic cell activation marker ([11]; dendritic cells derived from individuals with HIV infection): suppresses | apoptosis in microglial cells [12]: induces apoptosis | migration of human neutrophils [13]: inhibits | effective concentration, suppressive effect on IL-6 secretion [14]: ~5 µM | log P [15]: about 6.1
